The target in one data set is T1, Hs_GSK3β (Homo sapiens, UniProt P49841).
T1 construct: host or cells: Sf9 insect cells (baculovirus)
Nature of the data set: ADP-Glo kinase assay, primary screen. The class given is biochemical. As to conditions: n=2, read-out: % of residual activity Hs_GSK3β. In general terms: ADP-Glo first removes unused ATP, then detects ADP through luciferase.

A further data set concerns the target T2, Hs_CK1ε (Homo sapiens, UniProt P49674).
T2 construct: host or cells: Sf9 insect cells (baculovirus)
Description: ADP-Glo kinase assay, primary screen. As to conditions: n=2, read-out: % of residual activity Hs_CK1ε. It is filed as biochemical.

The subject of another data set is Human skin fibroblasts. Description: cytotoxic assay, nuclei count (Hoechst, HCS). It is filed as cell-based. As to conditions: summary of Table S2.
A further data set concerns the target T3, Hs_CDK5/p25 (Homo sapiens, UniProt Q00535).
T3 construct: host or cells: bacteria
Nature of the data set: ADP-Glo kinase assay, primary screen. It is filed as biochemical. As to conditions: n=2, read-out: % of residual activity Hs_CDK5/p25.

The next data set concerns the target T4, HsCLK3 (Homo sapiens, UniProt P49761).
T4 construct: purchased Eurofins (contract assay)
Description: kinase inhibition study by Eurofins. The class given is biochemical. As to conditions: duplicate. On the procedure:
(§1) Several inhibition studies for human kinases (HsCLK2, HsCLK3, HsCLK4), as well as the KINOMEscan^SM Assaywere performed by the Eurofins company, following protocols reported on their website.

The next data set concerns the target T5, HsCLK4 (Homo sapiens, UniProt Q9HAZ1).
T5 construct: purchased Eurofins (contract assay)
Nature of the data set: kinase inhibition study by Eurofins. The class given is biochemical. On the procedure: as §1

The next data set has as its target T6, HsCLK2 (Homo sapiens, UniProt P49760).
T6 construct: purchased Eurofins (contract assay)
Nature of the data set: kinase inhibition study by Eurofins. The class given is biochemical. As to conditions: duplicate. On the procedure:
as §1

In data set [1] the target is T7, MmCLK1 (Mus musculus, UniProt P22518).
T7 construct: host or cells: bacteria
T7 sequence (P22518 whole entry): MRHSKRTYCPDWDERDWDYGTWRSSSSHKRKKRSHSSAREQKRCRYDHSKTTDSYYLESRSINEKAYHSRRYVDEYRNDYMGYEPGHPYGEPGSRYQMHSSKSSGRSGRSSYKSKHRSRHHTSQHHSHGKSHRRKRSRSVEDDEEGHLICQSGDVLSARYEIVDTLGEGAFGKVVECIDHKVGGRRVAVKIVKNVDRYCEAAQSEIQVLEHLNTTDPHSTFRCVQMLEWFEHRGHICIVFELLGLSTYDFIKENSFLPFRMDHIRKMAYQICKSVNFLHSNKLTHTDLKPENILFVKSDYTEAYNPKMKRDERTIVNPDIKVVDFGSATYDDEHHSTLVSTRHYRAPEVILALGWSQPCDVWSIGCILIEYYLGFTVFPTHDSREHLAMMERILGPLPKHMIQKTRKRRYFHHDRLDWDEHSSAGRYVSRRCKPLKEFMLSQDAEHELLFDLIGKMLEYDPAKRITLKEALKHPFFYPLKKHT
Nature of the data set: ADP-Glo kinase assay. It is filed as biochemical. As to conditions: for remaining activity at 1 µM / remaining activity at 10 µM: n=2, read-out: % of residual activity Mm_CLK1.

The target of a further data set is T8, BMPR1B (Homo sapiens, UniProt O00238).
T8 construct: purchased Eurofins DiscoverX KINOMEscan (scanMAX 468)
Description: KINOMEscan. It is filed as binding. As to conditions: read-out: Percent Control.

Another data set addresses T9, PIM3 (Homo sapiens, UniProt Q86V86).
T9 construct: purchased Eurofins DiscoverX KINOMEscan (scanMAX 468)
Description: KINOMEscan. It is filed as binding. As to conditions: read-out: Percent Control.

For a further data set, the target named is T10, VEGFR2 (Homo sapiens, UniProt P35968).
T10 construct: purchased Eurofins DiscoverX KINOMEscan (scanMAX 468)
Description: KINOMEscan. The class given is binding. As to conditions: read-out: Percent Control.

Data set [2] concerns the target T11, ABL1(Q252H)-phosphorylated (Homo sapiens, UniProt P00519, Q252H).
T11 construct: purchased Eurofins DiscoverX KINOMEscan (scanMAX 468)
Description: KINOMEscan. The class given is binding. As to conditions: read-out: Percent Control.

The next data set deals with T12, BTK (Homo sapiens, UniProt Q06187).
T12 construct: purchased Eurofins DiscoverX KINOMEscan (scanMAX 468)
Description: KINOMEscan. It is filed as binding. As to conditions: read-out: Percent Control.

A further data set has as its target T13, PIK3CA(H1047Y) (Homo sapiens, UniProt P42336, H1047Y).
T13 construct: purchased Eurofins DiscoverX KINOMEscan (scanMAX 468)
Description: KINOMEscan. The class given is binding. As to conditions: read-out: Percent Control.

The target in a further data set is T14, ERK5 (Homo sapiens, UniProt Q13164).
T14 construct: purchased Eurofins DiscoverX KINOMEscan (scanMAX 468)
Description: KINOMEscan. It is filed as binding. As to conditions: read-out: Percent Control.

A further data set addresses T15, BUB1 (Homo sapiens, UniProt O43683).
T15 construct: purchased Eurofins DiscoverX KINOMEscan (scanMAX 468)
Nature of the data set: KINOMEscan. It is filed as binding. As to conditions: read-out: Percent Control.

The target of another data set is T16, SNRK (Homo sapiens, UniProt Q9NRH2).
T16 construct: purchased Eurofins DiscoverX KINOMEscan (scanMAX 468)
Description: KINOMEscan. It is filed as binding. As to conditions: read-out: Percent Control.

The next data set concerns the target T17, RET (Homo sapiens, UniProt P07949).
T17 construct: purchased Eurofins DiscoverX KINOMEscan (scanMAX 468)
Description: KINOMEscan. It is filed as binding. As to conditions: read-out: Percent Control.

In a further data set the target is T18, MAP4K3 (Homo sapiens, UniProt Q8IVH8).
T18 construct: purchased Eurofins DiscoverX KINOMEscan (scanMAX 468)
T18 sequence (Q8IVH8 whole entry): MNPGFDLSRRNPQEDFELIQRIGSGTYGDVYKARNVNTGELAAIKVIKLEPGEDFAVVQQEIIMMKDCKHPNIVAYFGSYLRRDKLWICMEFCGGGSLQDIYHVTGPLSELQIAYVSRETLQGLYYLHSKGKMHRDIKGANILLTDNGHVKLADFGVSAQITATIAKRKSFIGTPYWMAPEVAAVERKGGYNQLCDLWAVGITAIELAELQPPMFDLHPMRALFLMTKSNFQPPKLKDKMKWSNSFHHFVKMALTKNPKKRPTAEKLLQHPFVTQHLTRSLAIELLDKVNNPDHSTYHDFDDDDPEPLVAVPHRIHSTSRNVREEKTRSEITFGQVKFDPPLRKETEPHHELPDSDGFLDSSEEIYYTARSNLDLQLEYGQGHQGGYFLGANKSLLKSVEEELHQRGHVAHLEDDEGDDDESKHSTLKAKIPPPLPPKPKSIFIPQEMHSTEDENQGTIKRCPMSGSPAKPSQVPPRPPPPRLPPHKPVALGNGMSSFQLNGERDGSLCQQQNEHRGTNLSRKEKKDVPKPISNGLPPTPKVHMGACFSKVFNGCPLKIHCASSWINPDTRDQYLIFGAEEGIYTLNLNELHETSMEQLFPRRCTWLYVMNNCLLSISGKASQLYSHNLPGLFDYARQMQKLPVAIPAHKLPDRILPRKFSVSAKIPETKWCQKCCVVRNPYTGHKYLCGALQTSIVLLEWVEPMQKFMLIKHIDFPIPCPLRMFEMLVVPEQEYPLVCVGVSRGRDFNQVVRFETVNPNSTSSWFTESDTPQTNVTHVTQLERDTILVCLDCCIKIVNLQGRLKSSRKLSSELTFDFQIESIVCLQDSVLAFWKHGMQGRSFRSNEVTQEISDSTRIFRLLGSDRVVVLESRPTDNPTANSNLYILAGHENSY
Description: KINOMEscan. The class given is binding. As to conditions: read-out: Percent Control.

For the next data set, the target named is T19, PKMYT1 (Homo sapiens, UniProt Q99640).
T19 construct: purchased Eurofins DiscoverX KINOMEscan (scanMAX 468)
Nature of the data set: KINOMEscan. It is filed as binding. As to conditions: read-out: Percent Control.

For a further data set, the target named is T20, PAK2 (Homo sapiens, UniProt Q13177).
T20 construct: purchased Eurofins DiscoverX KINOMEscan (scanMAX 468)
Description: KINOMEscan. The class given is binding. As to conditions: read-out: Percent Control.

The next data set addresses T21, AKT3 (Homo sapiens, UniProt Q9Y243).
T21 construct: purchased Eurofins DiscoverX KINOMEscan (scanMAX 468)
Nature of the data set: KINOMEscan. As to conditions: read-out: Percent Control. It is filed as binding.

A further data set deals with T22, S6K1 (Homo sapiens, UniProt P23443).
T22 construct: purchased Eurofins DiscoverX KINOMEscan (scanMAX 468)
Nature of the data set: KINOMEscan. The class given is binding. As to conditions: read-out: Percent Control.

Another data set deals with T23, MAK (Homo sapiens, UniProt P20794).
T23 construct: purchased Eurofins DiscoverX KINOMEscan (scanMAX 468)
T23 sequence (P20794 whole entry): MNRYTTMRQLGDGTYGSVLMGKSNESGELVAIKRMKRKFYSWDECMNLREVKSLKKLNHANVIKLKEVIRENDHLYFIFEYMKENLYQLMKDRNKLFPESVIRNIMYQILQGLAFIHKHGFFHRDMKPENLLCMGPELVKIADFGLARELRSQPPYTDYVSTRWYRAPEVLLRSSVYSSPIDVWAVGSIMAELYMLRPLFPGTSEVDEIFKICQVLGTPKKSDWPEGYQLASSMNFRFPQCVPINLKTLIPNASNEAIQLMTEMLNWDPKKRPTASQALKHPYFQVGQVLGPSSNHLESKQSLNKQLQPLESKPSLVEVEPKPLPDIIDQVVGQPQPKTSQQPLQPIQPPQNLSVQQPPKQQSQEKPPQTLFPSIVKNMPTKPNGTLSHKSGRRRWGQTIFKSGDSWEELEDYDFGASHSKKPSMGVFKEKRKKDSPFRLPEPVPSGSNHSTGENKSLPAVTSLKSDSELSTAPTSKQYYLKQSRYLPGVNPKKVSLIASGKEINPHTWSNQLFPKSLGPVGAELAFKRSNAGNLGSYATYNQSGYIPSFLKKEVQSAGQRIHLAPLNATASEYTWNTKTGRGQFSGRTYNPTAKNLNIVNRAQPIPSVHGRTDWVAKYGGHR
Nature of the data set: KINOMEscan. It is filed as binding. As to conditions: read-out: Percent Control.

In a further data set the target is T24, STK36 (Homo sapiens, UniProt Q9NRP7).
T24 construct: purchased Eurofins DiscoverX KINOMEscan (scanMAX 468)
Description: KINOMEscan. It is filed as binding. As to conditions: read-out: Percent Control.

Data set [3] deals with T7, MmCLK1. Also on record: method as in ref 13 (a number printed in a supplementary file, which may have a reference list of its own: not looked up in the article's list). As to conditions: DB18, cited from earlier work.
The next data set has as its target T25, MAP3K1 (Homo sapiens, UniProt Q13233).
T25 construct: purchased Eurofins DiscoverX KINOMEscan (scanMAX 468)
Description: KINOMEscan. The class given is binding. As to conditions: read-out: Percent Control.

Where [4] appears, read: mouse CLK1 orthologue, read-out: IC50 MmCLK1.

Several values for one entry are separate records, joined by “and”; a condition that tells them apart may be missing. Identical values can stand only once. Counter-ions that a name gives are not always drawn. Like-named read-outs stand apart in the source and are kept apart here. Some results are limits rather than exact numbers.

T3 sequence (Q00535 whole entry): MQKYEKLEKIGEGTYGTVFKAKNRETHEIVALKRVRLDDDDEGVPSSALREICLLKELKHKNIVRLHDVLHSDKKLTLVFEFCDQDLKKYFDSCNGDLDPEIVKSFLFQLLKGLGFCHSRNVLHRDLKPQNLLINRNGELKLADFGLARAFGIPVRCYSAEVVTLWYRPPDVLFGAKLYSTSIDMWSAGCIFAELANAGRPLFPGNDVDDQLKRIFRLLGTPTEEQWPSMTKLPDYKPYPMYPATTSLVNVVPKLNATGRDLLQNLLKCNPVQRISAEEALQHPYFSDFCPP
T3 sequence (Q15078 99-307 partner limits assumed): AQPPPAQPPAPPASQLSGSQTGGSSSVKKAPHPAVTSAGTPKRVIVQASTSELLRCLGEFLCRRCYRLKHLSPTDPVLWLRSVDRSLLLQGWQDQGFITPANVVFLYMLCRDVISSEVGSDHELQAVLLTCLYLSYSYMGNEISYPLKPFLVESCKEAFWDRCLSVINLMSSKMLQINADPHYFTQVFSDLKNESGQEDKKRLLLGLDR
T2 sequence (P49674 whole entry): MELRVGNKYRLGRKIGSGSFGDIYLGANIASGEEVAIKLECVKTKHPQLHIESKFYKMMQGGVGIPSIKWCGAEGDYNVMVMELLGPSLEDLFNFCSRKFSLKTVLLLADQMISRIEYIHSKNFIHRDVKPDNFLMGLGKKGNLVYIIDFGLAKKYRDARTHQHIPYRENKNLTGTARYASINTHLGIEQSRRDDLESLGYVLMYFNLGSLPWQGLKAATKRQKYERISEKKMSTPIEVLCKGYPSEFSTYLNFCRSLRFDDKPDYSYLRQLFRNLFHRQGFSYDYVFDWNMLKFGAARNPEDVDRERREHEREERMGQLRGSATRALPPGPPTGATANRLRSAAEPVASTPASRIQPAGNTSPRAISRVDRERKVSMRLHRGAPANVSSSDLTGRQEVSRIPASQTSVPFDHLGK
T5 sequence (Q9HAZ1 whole entry): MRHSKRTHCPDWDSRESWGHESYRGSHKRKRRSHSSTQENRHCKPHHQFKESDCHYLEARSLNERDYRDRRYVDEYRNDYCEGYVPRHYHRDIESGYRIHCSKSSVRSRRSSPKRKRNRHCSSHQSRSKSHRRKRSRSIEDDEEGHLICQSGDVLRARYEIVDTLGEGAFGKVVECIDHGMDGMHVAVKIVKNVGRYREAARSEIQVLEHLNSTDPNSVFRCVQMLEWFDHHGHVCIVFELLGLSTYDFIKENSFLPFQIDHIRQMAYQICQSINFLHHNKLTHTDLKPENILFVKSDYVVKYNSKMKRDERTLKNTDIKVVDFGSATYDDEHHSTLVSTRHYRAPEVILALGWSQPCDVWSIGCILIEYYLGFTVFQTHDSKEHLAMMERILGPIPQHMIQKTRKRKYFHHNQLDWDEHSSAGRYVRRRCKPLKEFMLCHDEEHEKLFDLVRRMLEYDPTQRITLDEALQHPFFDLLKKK
T6 sequence (P49760 whole entry): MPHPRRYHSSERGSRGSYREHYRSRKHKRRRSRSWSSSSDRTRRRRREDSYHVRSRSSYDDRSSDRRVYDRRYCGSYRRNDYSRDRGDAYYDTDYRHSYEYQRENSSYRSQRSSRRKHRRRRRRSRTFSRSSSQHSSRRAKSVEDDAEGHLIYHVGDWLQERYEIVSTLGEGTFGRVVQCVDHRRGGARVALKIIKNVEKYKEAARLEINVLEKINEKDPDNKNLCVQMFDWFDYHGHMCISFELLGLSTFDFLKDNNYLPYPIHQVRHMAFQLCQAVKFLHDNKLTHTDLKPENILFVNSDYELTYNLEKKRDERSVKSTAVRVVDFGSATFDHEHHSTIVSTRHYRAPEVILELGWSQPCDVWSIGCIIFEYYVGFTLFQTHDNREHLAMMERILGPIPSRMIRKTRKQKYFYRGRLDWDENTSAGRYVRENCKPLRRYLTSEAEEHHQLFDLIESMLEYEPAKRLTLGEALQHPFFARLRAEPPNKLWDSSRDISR
T1 sequence (P49841 whole entry): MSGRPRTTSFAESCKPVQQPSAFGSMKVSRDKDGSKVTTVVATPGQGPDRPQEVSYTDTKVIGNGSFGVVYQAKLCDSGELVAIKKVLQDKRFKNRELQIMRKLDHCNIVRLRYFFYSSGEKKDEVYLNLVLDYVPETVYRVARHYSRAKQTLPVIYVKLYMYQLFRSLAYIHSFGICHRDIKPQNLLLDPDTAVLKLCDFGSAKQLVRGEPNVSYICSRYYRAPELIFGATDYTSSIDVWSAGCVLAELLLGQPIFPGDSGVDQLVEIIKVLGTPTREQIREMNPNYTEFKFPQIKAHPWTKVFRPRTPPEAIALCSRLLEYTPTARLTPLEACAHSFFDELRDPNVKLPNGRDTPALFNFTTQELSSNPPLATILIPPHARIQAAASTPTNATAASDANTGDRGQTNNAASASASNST
T4 sequence (P49761 whole entry): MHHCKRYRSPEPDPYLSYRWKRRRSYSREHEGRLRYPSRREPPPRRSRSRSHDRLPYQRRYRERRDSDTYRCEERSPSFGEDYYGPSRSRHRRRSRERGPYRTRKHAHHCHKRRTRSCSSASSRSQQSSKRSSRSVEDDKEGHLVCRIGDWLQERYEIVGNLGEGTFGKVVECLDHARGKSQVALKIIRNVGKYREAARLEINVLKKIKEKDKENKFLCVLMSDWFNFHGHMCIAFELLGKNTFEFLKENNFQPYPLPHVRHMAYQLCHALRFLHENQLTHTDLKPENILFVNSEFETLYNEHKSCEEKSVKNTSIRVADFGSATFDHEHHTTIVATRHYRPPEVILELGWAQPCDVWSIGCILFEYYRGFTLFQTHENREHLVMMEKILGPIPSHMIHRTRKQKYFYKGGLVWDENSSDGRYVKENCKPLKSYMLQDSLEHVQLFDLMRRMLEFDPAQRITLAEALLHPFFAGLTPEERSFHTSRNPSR

One may read the IC50 as the concentration that gives 50% inhibition. As for `Cc1ccc(-n2cc(COc3cccc4cnc(Nc5cc(Cl)cc(Cl)c5)nc34)nn2)c([N+](=O)[O-])c1` [7b, N-(3,5-dichlorophenyl)-8-((1-(4-methyl-2-nitrophenyl)-1H-1,2,3-triazol-4-yl)methoxy)quinazolin-2-amine], the remaining activity at 1 µM was found to be 85% at Hs_GSK3β, 81% on Hs_CK1ε, 93% on Hs_CDK5/p25 and 14% on MmCLK1 [1]. Moreover, the remaining activity at 10 µM at Hs_GSK3β was determined as 36%; at Hs_CK1ε it was 47%; at Hs_CDK5/p25, 68%; at MmCLK1 [1], 17%. Also, the “toxicity towards fibroblasts” value in the data set on Human skin fibroblasts is “non-toxic”. Further, the IC50 is 3310 nM against HsCLK3, 380 nM on HsCLK4 (duplicate), 97 nM against HsCLK2 and 280 to 369 nM at MmCLK1 [1] (setting [4]).
For `O=[N+]([O-])c1cc(Br)ccc1-n1cc(COc2cccc3cnc(Nc4cccc(Cl)c4)nc23)nn1` [12d, N-(3-Chlorophenyl)-8-((1-(4-bromo-2-nitrophenyl)-1H-1,2,3-triazol-4-yl)methoxy)quinazolin-2-amine], the remaining activity at 1 µM is at least 100% on Hs_GSK3β, at least 100% at Hs_CK1ε, at least 100% at Hs_CDK5/p25 and 27% at MmCLK1 [1]. Further, the remaining activity at 10 µM at Hs_GSK3β was 75%; at Hs_CK1ε, 90%; on Hs_CDK5/p25, at least 100%; on MmCLK1 [1] it was 22%. For the same compound, the “toxicity towards fibroblasts” value with Human skin fibroblasts is given as “moderate toxicity”. Further, on MmCLK1 [1] (setting [4]), the IC50 worked out at 391 nM.
For `O=[N+]([O-])c1cc(CO)ccc1-n1cc(COc2cccc3cnc(Nc4cccc(Cl)c4)nc23)nn1` [12e, 4-(4-(((2-((3-Chlorophenyl)amino)quinazolin-8-yl)oxy)methyl)-1H-1,2,3-triazol-1-yl)-3-nitrobenzyl alcohol], the remaining activity at 1 µM on Hs_GSK3β was 99%; on Hs_CK1ε it was at least 100%; at Hs_CDK5/p25, at least 100%; on MmCLK1 [1] it was 74%. Also, the remaining activity at 10 µM on Hs_GSK3β worked out at 35%; at Hs_CK1ε, 52%; at Hs_CDK5/p25 it was 54%; on MmCLK1 [1], 35%. The “toxicity towards fibroblasts” value with Human skin fibroblasts is reported as “moderate toxicity”. For the same compound, the IC50 at HsCLK3 was 7500 nM and 7490 nM; against HsCLK4, 150 to 200 nM; against HsCLK4 (duplicate), 195 nM; against HsCLK2 it was 50 nM; at MmCLK1 [1] (setting [4]) it was 191 nM.
For `COC(=O)c1ccc(-n2cc(COc3cccc4cnc(Nc5cccc(Cl)c5)nc34)nn2)c([N+](=O)[O-])c1` [12f, Methyl 4-(4-(((2-((3-chlorophenyl)amino)quinazolin-8-yl)oxy)methyl)-1H-1,2,3-triazol-1-yl)-3-nitrobenzoate], the remaining activity at 1 µM is 99% on Hs_GSK3β, at least 100% on Hs_CK1ε, at least 100% on Hs_CDK5/p25 and 28% on MmCLK1 [1]. Moreover, the remaining activity at 10 µM is 69% on Hs_GSK3β, 95% on Hs_CK1ε, 61% at Hs_CDK5/p25 and 18% on MmCLK1 [1]. In addition, the “toxicity towards fibroblasts” value with Human skin fibroblasts is recorded as “non-active”. On MmCLK1 [1] (setting [4]), the IC50 was found to be 245 nM.
On to `O=C(O)c1ccc(-n2cc(COc3cccc4cnc(Nc5cccc(Cl)c5)nc34)nn2)c([N+](=O)[O-])c1` [12g, 4-(4-(((2-((3-Chlorophenyl)amino)quinazolin-8-yl)oxy)methyl)-1H-1,2,3-triazol-1-yl)-3-nitrobenzoic acid], for which the remaining activity at 1 µM at Hs_GSK3β turned out to be 76%; on Hs_CK1ε it was 98%; at Hs_CDK5/p25, 45%; at MmCLK1 [1], 13%. Besides, the remaining activity at 10 µM on Hs_GSK3β was 19%; at Hs_CK1ε, 72%; on Hs_CDK5/p25, 97%; on MmCLK1 [1], 5%. Moreover, in the data set on Human skin fibroblasts, the “toxicity towards fibroblasts” value was “non-active”. In addition, the IC50 at HsCLK3 was 339 nM; at HsCLK4 (duplicate) it was 55 nM; against HsCLK2, 28 nM; on MmCLK1 [1] (setting [4]) it was 24 nM.
In the case of `N[C@H]1CC[C@@H](n2cc(COc3cccc4cnc(Nc5cc(Cl)cc(Cl)c5)nc34)nn2)CC1` [16b, 8-((1-((cis)-4-Aminocyclohexyl)-1H-1,2,3-triazol-4-yl)methoxy)-N-(3,5-dichlorophenyl)quinazolin-2-amine hydrochloride], the remaining activity at 1 µM at Hs_GSK3β was determined as 47%; at Hs_CK1ε, 82%; at Hs_CDK5/p25 it was 87%; on MmCLK1 [1], 19%. Further, the remaining activity at 10 µM on Hs_GSK3β came to 8%; at Hs_CK1ε, 24%; at Hs_CDK5/p25, 44%; on MmCLK1 [1], 8%. The IC50 is 3260 nM at HsCLK3, 83 nM against HsCLK4 (duplicate), 20 nM against HsCLK2 and 180 nM on MmCLK1 [1] (setting [4]).
As for `Cc1ccc(-n2cc(COc3cccc4cnc(Nc5cccc(Cl)c5)nc34)nn2)c([N+](=O)[O-])c1` [DB18], the remaining binding at 1 µM at BMPR1B turned out to be 96%; on PIM3 it was 100%; at VEGFR2 it was 99%; in data set [2] it was 100%; on BTK, 100%; at PIK3CA(H1047Y) it was 96%. Besides, the remaining binding at 1 µM on ERK5 was found to be 100%; on BUB1, 97%; on SNRK, 100%; at RET, 92%; on MAP4K3, 95%; on PKMYT1 it was 62%. Besides, the remaining binding at 1 µM worked out at 100% at PAK2; 100% on AKT3; 94% on S6K1; 100% at MAK; 100% on STK36; 98% at MAP3K1. Besides, the “% of residual activity Mm_CLK1” value on MmCLK1 [3] (1 µM) is listed as 21%; at MmCLK1 [3] (10 µM), 11%. At MmCLK1 [1], this compound gave an IC50 of 120 nM.
